One data set deals with HEL cells. The data set can be described thus: Proliferation assay, HEL control cell line (CellTiter-Glo, 7 days). The class given is cell-based, human. The note with it: Homo sapiens, HEL, 168 h. In short, it runs like this: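 Cells seeded at 125 (MOLM-13), 300 (MV4;11), 75 (OCI-AML3) or 200 (HEL) per well were exposed to 3.16-fold compound dilutions (0.1% DMSO) for 7 days at 37° C. Viability by CellTiter-Glo luminescence, normalized to DMSO (100%) and day-0 plate (0%); IC50 from one-site dose-response fit.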

Another data set deals with hERG (Homo sapiens (Human), UniProt Q12809). The data set can be described thus: hERG assay 1 (standard), SyncroPatch 384PE. The class given is cell-based. As to conditions: CHO cells, room temperature, up to 40 uM. A digest of the protocol:
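Automated patch clamp on hERG-expressing CHO-K1 cells at room temperature, +60/−40 mV protocol every 15 s. Six-point cumulative concentrations 139 nM to 40 uM (0.33% DMSO final); IC50 from one-site fit of % inhibition. Wells required ≥30 MegaOhm seal, current >0.2 nA, Z prime >0.4.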
(The hERG channel carries a current that helps repolarise heart muscle cells.)

The nature of data set [1]: Human liver microsomes (HLMs) intrinsic clearance assay. The class given is in vitro ADME. The note with it: human, microsomes, pH 7.4, HLM CLint. (Microsomes from liver hold many membrane-bound enzymes, among them those of drug oxidation.)

hERG, sequence (Q12809 whole entry): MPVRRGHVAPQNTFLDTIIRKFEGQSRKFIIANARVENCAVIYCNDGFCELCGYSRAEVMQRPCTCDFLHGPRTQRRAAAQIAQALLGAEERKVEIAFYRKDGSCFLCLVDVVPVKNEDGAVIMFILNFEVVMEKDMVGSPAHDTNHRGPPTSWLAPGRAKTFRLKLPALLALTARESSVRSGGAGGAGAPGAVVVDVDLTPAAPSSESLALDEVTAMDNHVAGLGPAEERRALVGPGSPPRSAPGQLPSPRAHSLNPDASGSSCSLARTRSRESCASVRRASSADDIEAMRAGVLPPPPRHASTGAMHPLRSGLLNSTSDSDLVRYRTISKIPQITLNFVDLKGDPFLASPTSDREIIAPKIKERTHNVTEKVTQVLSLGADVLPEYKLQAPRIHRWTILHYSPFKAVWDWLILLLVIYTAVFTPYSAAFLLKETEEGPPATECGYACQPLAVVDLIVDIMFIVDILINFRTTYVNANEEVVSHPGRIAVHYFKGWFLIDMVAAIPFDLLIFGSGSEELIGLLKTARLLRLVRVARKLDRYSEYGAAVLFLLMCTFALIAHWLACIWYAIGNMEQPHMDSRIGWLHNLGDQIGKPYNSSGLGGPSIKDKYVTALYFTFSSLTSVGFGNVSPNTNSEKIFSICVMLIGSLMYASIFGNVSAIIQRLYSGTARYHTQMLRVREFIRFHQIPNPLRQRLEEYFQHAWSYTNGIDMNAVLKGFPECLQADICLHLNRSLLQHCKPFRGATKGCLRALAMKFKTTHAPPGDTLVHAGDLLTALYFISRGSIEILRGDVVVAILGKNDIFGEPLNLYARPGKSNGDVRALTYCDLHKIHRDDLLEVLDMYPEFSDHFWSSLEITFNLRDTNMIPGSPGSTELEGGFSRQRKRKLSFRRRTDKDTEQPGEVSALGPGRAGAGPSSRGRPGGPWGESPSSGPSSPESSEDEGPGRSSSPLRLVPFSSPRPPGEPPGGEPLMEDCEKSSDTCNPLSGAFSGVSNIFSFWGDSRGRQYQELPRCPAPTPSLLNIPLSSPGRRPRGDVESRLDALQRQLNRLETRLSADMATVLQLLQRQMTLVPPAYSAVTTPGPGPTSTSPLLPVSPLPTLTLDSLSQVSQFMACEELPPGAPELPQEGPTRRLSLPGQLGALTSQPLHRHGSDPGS

As for `CCN(C(=O)c1cc(F)ccc1-n1c(C)c(C(=O)[C@@H]2CCN(C(=O)[C@@H]3CC[C@@H](C)N3)[C@@H](C)C2)c2ccncc21)C(C)C` (stereo in doubt) [Example 65, N-Ethyl-5-fluoro-N-isopropyl-2-(2-methyl-3-((2S,4RS)-2-methyl-1-((2S,5R)-5-methylpyrrolidine-2-carbonyl)piperidine-4-carbonyl)-1H-pyrrolo[2,3-c]pyridin-1-yl)benzamide], the results for the IC50 in the data set on HEL cells and against hERG were more than 10 µM and more than 40 µM, respectively. The compound further came in with a microsomal CLint at 1 µM in data set [1] of 55 µL/min/mg.
The corresponding values for `CC(C)N(C(=O)c1cc(F)ccc1-n1cc(C(=O)[C@H]2CCN(C[C@H]3CC[C@H](NS(C)(=O)=O)CC3)C2)c2ccncc21)C(C)C` [Example 1, 5-Fluoro-N,N-diisopropyl-2-(3-((S)-1-(((1r,4S)-4-(methylsulfonamido)-cyclohexyl)methyl)pyrrolidine-3-carbonyl)-1H-pyrrolo[2,3-c]pyridin-1-yl)benzamide] are more than 10 µM, 9.9 µM and 178 µL/min/mg.
As for `CC(C)N(C(=O)c1cc(F)ccc1-n1cc(C(=O)[C@H]2CCN(C(=O)[C@H]3N[C@@H]4CC[C@H]3C4)C2)c2ccncc21)C(C)C` [Example 2, 2-(3-((S)-1-((1R,3S,4S)-2-Azabicyclo[2.2.1]heptane-3-carbonyl)pyrrolidine-3-carbonyl)-1H-pyrrolo[2,3-c]pyridin-1-yl)-5-fluoro-N,N-diisopropylbenzamide], the IC50 is more than 10 µM in the data set with HEL cells and more than 40 µM against hERG. In addition, the microsomal CLint at 1 µM in data set [1] was 43 µL/min/mg.
The corresponding values for `CC(C)N(C(=O)c1cc(F)ccc1-n1cc(C(=O)[C@@H]2CCN(C(=O)[C@H]3N[C@@H]4CC[C@H]3C4)C2)c2ccncc21)C(C)C` [Example 3, 2-(3-((R)-1-((1R,3S,4S)-2-Azabicyclo[2.2.1]heptane-3-carbonyl)pyrrolidine-3-carbonyl)-1H-pyrrolo[2,3-c]pyridin-1-yl)-5-fluoro-N,N-diisopropylbenzamide] are more than 10 µM, 38.8 µM and 41 µL/min/mg.
In the same order, the values of `CC(C)N(C(=O)c1cc(F)ccc1-n1cc(C(=O)[C@@H]2CCN(C[C@H]3CC[C@H](NS(C)(=O)=O)CC3)C2)c2ccncc21)C(C)C` [Example 4, 5-Fluoro-N,N-diisopropyl-2-(3-((R)-1-(((1r,4R)-4-(methylsulfonamido)-cyclohexyl)methyl)pyrrolidine-3-carbonyl)-1H-pyrrolo[2,3-c]pyridin-1-yl)benzamide] are more than 10 µM, 6.3 µM and 171 µL/min/mg.
The corresponding values for `CC(C)N(C(=O)c1cc(F)ccc1-n1cc(C(=O)C2CN(C(=O)[C@H]3N[C@@H]4CC[C@H]3C4)C2)c2ccncc21)C(C)C` [Example 5, 2-(3-(1-((1R,3S,4S)-2-Azabicyclo[2.2.1]heptane-3-carbonyl)azetidine-3-carbonyl)-1H-pyrrolo[2,3-c]pyridin-1-yl)-5-fluoro-N,N-diisopropylbenzamide] are more than 10 µM, more than 40 µM and 35 µL/min/mg.
As to `CC(C)N(C(=O)c1cc(F)ccc1-n1cc(C(=O)C2CN(C(=O)[C@H]3N[C@H]4C[C@@H]3[C@@H](F)C4)C2)c2ccncc21)C(C)C` [Example 7, 5-Fluoro-2-(3-(1-((1S,3S,4S,5S)-5-fluoro-2-azabicyclo[2.2.1]heptane-3-carbonyl)azetidine-3-carbonyl)-1H-pyrrolo[2,3-c]pyridin-1-yl)-N,N-diisopropylbenzamide], the IC50 was more than 10 µM with HEL cells and more than 40 µM against hERG. The same compound came in with a microsomal CLint at 1 µM in data set [1] of 148 µL/min/mg.
The corresponding values for `CCN(C(=O)c1cc(F)ccc1-n1cc(C(=O)C2CN(C(=O)[C@H]3N[C@@H]4CC[C@H]3C4)C2)c2ccncc21)C(C)C` [Example 8, 2-(3-(1-((1R,3S,4S)-2-Azabicyclo[2.2.1]heptane-3-carbonyl)azetidine-3-carbonyl)-1H-pyrrolo[2,3-c]pyridin-1-yl)-N-ethyl-5-fluoro-N-isopropylbenzamide] are more than 10 µM, more than 40 µM and 21 µL/min/mg.
As for `CC(C)c1ncccc1-c1cc(F)ccc1-n1cc(C(=O)C2CN(C(=O)[C@H]3N[C@@H]4CC[C@H]3C4)C2)c2ccncc21` [Example 10, (1-((1R,3S,4S)-2-Azabicyclo[2.2.1]heptane-3-carbonyl)azetidin-3-yl)(1-(4-fluoro-2-(2-isopropylpyridin-3-yl)phenyl)-1H-pyrrolo[2,3-c]pyridin-3-yl)methanone], the IC50 was more than 10 µM in the data set with HEL cells and more than 40 µM on hERG. Besides, the microsomal CLint at 1 µM in data set [1] turned out to be 182 µL/min/mg.
In the case of `CC(C)c1cnccc1-c1cc(F)ccc1-n1cc(C(=O)C2CN(C(=O)[C@H]3N[C@@H]4CC[C@H]3C4)C2)c2ccncc21.O=CO` [Example 11, (1-((1R,3S,4S)-2-Azabicyclo[2.2.1]heptane-3-carbonyl)azetidin-3-yl)(1-(4-fluoro-2-(3-isopropylpyridin-4-yl)phenyl)-1H-pyrrolo[2,3-c]pyridin-3-yl)methanone 1·formic acid], the IC50 was more than 10 µM in the data set on HEL cells and more than 40 µM against hERG. For the same compound, the microsomal CLint at 1 µM in data set [1] is more than 294 µL/min/mg.
For the compound `CC(C)c1ncsc1-c1cc(F)ccc1-n1cc(C(=O)C2CN(C(=O)[C@H]3N[C@@H]4CC[C@H]3C4)C2)c2ccncc21.O=CO` [Example 12, (1-((1R,3S,4S)-2-Azabicyclo[2.2.1]heptane-3-carbonyl)azetidin-3-yl)(1-(4-fluoro-2-(4-isopropylthiazol-5-yl)phenyl)-1H-pyrrolo[2,3-c]pyridin-3-yl)methanone 1·formic acid], the IC50 was more than 10 µM with HEL cells and more than 40 µM against hERG. The microsomal CLint at 1 µM in data set [1] was 216 µL/min/mg.
The corresponding values for `CC(C)(F)c1ncccc1-c1cc(F)ccc1-n1cc(C(=O)C2CN(C(=O)[C@H]3N[C@@H]4CC[C@H]3C4)C2)c2ccncc21` [Example 13, (1-((1R,3S,4S)-2-Azabicyclo[2.2.1]heptane-3-carbonyl)azetidin-3-yl)(1-(4-fluoro-2-(2-(2-fluoropropan-2-yl)pyridin-3-yl)phenyl)-1H-pyrrolo[2,3-c]pyridin-3-yl)methanone] are more than 10 µM, 35.8 µM and 119 µL/min/mg.
The corresponding values for `CC(C)N(C(=O)c1cc(F)ccc1-n1cc(C(=O)C2CN(C(=O)[C@H]3N[C@@H]4CC[C@H]3C4)C2)c2ccnc(F)c21)C(C)C` [Example 15, 2-(3-(1-((1R,3S,4S)-2-Azabicyclo[2.2.1]heptane-3-carbonyl)azetidine-3-carbonyl)-7-fluoro-1H-pyrrolo[2,3-c]pyridin-1-yl)-5-fluoro-N,N-diisopropylbenzamide] are more than 10 µM, 24.9 µM and 132 µL/min/mg.
For the compound `CC(C)N(C(=O)c1cc(F)ccc1-n1cc(C(=O)C2CCN(C(=O)[C@H]3N[C@@H]4CC[C@H]3C4)CC2)c2ccncc21)C(C)C` [Example 16, 2-(3-(1-((1R,3S,4S)-2-Azabicyclo[2.2.1]heptane-3-carbonyl)piperidine-4-carbonyl)-1H-pyrrolo[2,3-c]pyridin-1-yl)-5-fluoro-N,N-diisopropylbenzamide], the IC50 is more than 10 µM in the data set on HEL cells and more than 40 µM against hERG. The compound further had a microsomal CLint at 1 µM in data set [1] of 27 µL/min/mg.
In the same order, the values of `CC(C)N(C(=O)c1cc(F)ccc1-n1cc(C(=O)C2CCN(C[C@H]3CC[C@H](NS(C)(=O)=O)CC3)CC2)c2ccncc21)C(C)C` [Example 17, 5-Fluoro-N,N-diisopropyl-2-(3-(1-(((1r,4r)-4-(methylsulfonamido)cyclohexyl)-methyl)piperidine-4-carbonyl)-1H-pyrrolo[2,3-c]pyridin-1-yl)benzamide] are more than 10 µM, 9.1 µM and 52 µL/min/mg.
Consider `C=C1C[C@@H]2CC[C@H]1[C@@H](C(=O)N1CCC(C(=O)c3cn(-c4ccc(F)cc4C(=O)N(C(C)C)C(C)C)c4cnccc34)CC1)N2` [Example 18, 5-Fluoro-N,N-diisopropyl-2-(3-(1-((1S,3S,4R)-5-methylene-2-azabicyclo[2.2.2]-octane-3-carbonyl)piperidine-4-carbonyl)-1H-pyrrolo[2,3-c]pyridin-1-yl)benzamide], for which the IC50 with HEL cells was more than 10 µM; against hERG, more than 40 µM. This compound registered a microsomal CLint at 1 µM in data set [1] of 172 µL/min/mg.
On to `CC(C)N(C(=O)c1cc(F)ccc1-n1cc(C(=O)C2CCN(C(=O)[C@H]3NC[C@@H]4C[C@@H]43)CC2)c2ccncc21)C(C)C` [Example 19, 2-(3-(1-((1S,2S,5R)-3-Azabicyclo[3.1.0]hexane-2-carbonyl)piperidine-4-carbonyl)-1H-pyrrolo[2,3-c]pyridin-1-yl)-5-fluoro-N,N-diisopropylbenzamide], for which the values for the IC50 with HEL cells and on hERG were more than 10 µM and more than 40 µM, respectively. This compound also returned a microsomal CLint at 1 µM in data set [1] of 56 µL/min/mg.
As to `CC(C)N(C(=O)c1cc(F)ccc1-n1cc(C(=O)C2CCN(C(=O)[C@H]3NC4CCC3CC4)CC2)c2ccncc21)C(C)C` [Example 20, (S)-2-(3-(1-(2-Azabicyclo[2.2.2]octane-3-carbonyl)piperidine-4-carbonyl)-1H-pyrrolo[2,3-c]pyridin-1-yl)-5-fluoro-N,N-diisopropylbenzamide], the IC50 with HEL cells is more than 10 µM; at hERG, more than 40 µM. In data set [1], this compound displayed a microsomal CLint at 1 µM of 27 µL/min/mg.

For orientation: IC50 means the concentration at which inhibition is half-maximal. High values mean a need for much substance, low ones inhibition by little substance. As a reminder, the microsomal CLint is the rate of metabolic loss divided by the concentration. Lower therefore signals slow turnover.
